Measurements published in patent publication US20250092395A1, “A GLUN2D INHIBITOR FOR USE IN THE TREATMENT OR RELAPSE PREVENTION OF A DEPRESSIVE EPISODE” (priority 2022, published 2025).
“Also recorded” adds a separate entry of the source.

Legend:
AMPAR and NMDAR currents = experiment: Control experiments: currents recorded at −80 mV and +40 mV; assay type: cell-based, mice; conditions: CNQX 10 μM; for currents recorded at −80 mV: then addition of DAPV 100 μM; for currents recorded at +40 mV: DAPV 100 μM
[1] = tested on: mice subjected to the chronic despair model (CDM); experiment: Chronic despair model (CDM) swim test, immobility time; assay type: in vivo; conditions: for immobility time of CDM mice treated with NAB-14, comedication: CIQ (10 mg/kg) or lorazepam (0,125 mg/kg) applied prior to NAB-14
Experimental: Induction phase: Mice were forced to swim in a glass cylinder (0 26 cm, 60 cm high) filled to 25 cm with 25° C. warm water for 10 min on 5 consecutive days. After the swimming, the animals were kept in their cages for two days before treatment and experiment readout was performed. The immobility time was measured in each session.
(§1) Behavioral Readout: After the treatment intervention, animals were either tested in an additional swim session (test day) to measure immobility time or tested in the InteliCage using the Nose-pokes sucrose preference test. For the assessment of the immobility time, mice were videotaped and two independent raters who were blinded to the experimental group analyzed the videos. Immobility time was defined as the cumulative time that the animals spend stationary with only enough movements of the tails or the forepaws to keep the head above the water surface. No distance is actively travelled except for passive floating, no directed movement of the front paws observed and the body of the animal mostly oriented parallel to the walls of the cylinder.

[2] = tested on: CA3-CA1 synapse in hippocampal brain slices of CDM mice; experiment: aLTP/aLTD inducibility in hippocampal brain slices of CDM mice after in vivo treatment; conditions: for CDM-induced blockade of LTP inducibility (aLTP) / LTD inducibility (EPSP amplitude after aLTD protocol) / LTP reestablishment by NAB-14, comedication: CDM mice; for CDM-induced blockade of LTP inducibility (aLTP): pretreatment; for LTD inducibility (EPSP amplitude after aLTD protocol): treatment after CDM; for LTP reestablishment by NAB-14, comedication: CIQ or lorazepam injected 20 min prior to NAB-14
Experimental: Animals were preoxygenated in a 100% oxygen atmosphere for 5 min before cervical dislocation and decapitated according to national and institutional guidelines. Transverse 300 […] were cut from hippocampus with a Vibratome (VT1200, Leica, Japan). Slices were prepared in artificial cerebrospinal fluid (ACSF) containing (in mmol/I): 125 NaCl, 25 NaHCO3, 1.25 NaH2PO4, 2.5 KCL, 1 MgCl2, 27 Glucose, 2 CaCl2) bubbled with carbogen (95% O2, 5% CO2).
After 20 min resting time at 35° C., slices were kept at room temperature in aCSF and transferred into the recording chamber (volume approx. 2-3 ml) and continuously superfused with aCSF (rate approx. 5-10 ml/min-). Differential interference contrast video microscopy was used to identify location of CA1 pyramidal neurons (Zeiss Axioskop 2 FS plus, Zeiss Microscopy, Germany). Beside optical identification neurons were classified according to their characteristic firing frequency adaptation to long depolarising current pulses. Borosilicate glass tubes (2.0 mm outer diameter, 0.5 mm wall thickness; Hilgenberg, Germany) were used to pull patch pipettes. Pipettes with a resistance of 5-10 MΩ were used and series resistance of 10-50 MΩ was compensated by bridge balance. Patch pipettes were filled with an internal solution containing (in mM) for EPSP-measurements: 132K-gluconate, 20KCL, 2MgCl2, 10Hepes, 0.1EGTA, 4 Na2ATP, 0.3NaGTP. PH was adjusted to 7.2 with KOH. For current measurements: 135Csgluconate, 2CsCl, 5 QX314, 10 Hepes, 10EGTA, 2MgCl2, 2Na2ATP, 2TEACI, pH was adjusted to 7.2 with HCl. Osmolarity (280-300 mosmol/1) was controlled at the beginning of each experimental day with Osmomat (Gonotec GmbH, Germany).
A stimulation pipette (patch pipette with 1-3 MΩ resistance when filled with internal solution) was placed superficially in the stratum radiatum of the CA1 region in approximately […] distance to the pyramidal cell layer. Subthreshold excitatory postsynaptic potentials (EPSPs, 2 7 mV) were evoked by Schaffer collateral stimulation with voltage pulses of 10-80 V (frequency of 0.1 Hz, duration of 200 μs) using a stimulus isolator (Model 2100 Isolated pulse stimulator, Carlsborg, U.S.A.). Resting membrane potentials were between −75 and −65 mV and holding potential was −70 mV. 50 ms current test pulses (leading to 5-10 mV hyperpolarization) were applied to control input and series resistances after every 10th EPSP. EPSPs were combined with APs triggered by short (3 ms) current application of 900 pA via the patch-clamp electrode. EPC-10 amplifiers (HEKA, Germany) were used and signals were filtered at 5 kHz. Patchmaster NEXT software (Version 1.2, HEKA, Germany) was used for data acquisition and experiments were performed at room temperature.
aLTP: Five EPSPs and five postsynaptic APs were paired at 100 Hz with a 5 ms delay (AP after EPSP). Five of these bursts of synchronized EPSP→AP pairs were applied at theta frequency (5 Hz), followed by an interval of 10 sec and 4 more theta blocks, resulting in 125 EPSP/AP pairings.
aLTD: 360 postsynaptic APs were pared with 360 EPSPs with a delay of 20-30 ms between each AP/EPSP pairing at a frequency of 1 Hz. 1 Hz LTD: 600 EPSPs were elicited at a frequency of 1 Hz whilst CA1 pyramidal cell membrane potential was hold at −60 mV.
Long-term plasticity or molecular analyses were assessed as described above after the induction phase of the CDM and the specific treatment.
EPSP measurement: For baseline measurement, the mean amplitudes of 30 consecutive EPSPs before the induction protocol were calculated. 25 min after LTP induction the mean amplitude of 30 consecutive EPSPs was calculated and compared to the baseline of the same measurement. Changes of EPSP amplitudes were expressed as percentages of the baseline measurement and analysed for each experimental group applying a two-tailed Wilcoxon test. The differences between separate experimental groups were assessed using the Mann-Whitney test, not assuming normal distribution. […]

CDM mice = experiment: Nose-poke sucrose preference test in CDM mice; assay type: in vivo; conditions: CIQ or lorazepam applied prior to NAB-14
Excerpt: as §1
The IntelliCage system (TSE Systems) allows simultaneous analysis of spontaneous and exploratory behavior, activity pattern, and drinking preference of up to 16 group-housed mice implanted with radio-frequency identification (RFID) transponders. The unit consists of an open common space with 4 red shelters in the center and 4 recording corners. Mice have free access to food in the middle of the IntelliCage, water is available in the corners behind remote-controlled guillotine doors. Each corner is equipped with 2 drinking bottles and permits the visit of only one mouse at the same time. The scored parameters—the nosepokes toward the doors and the licks on the bottles—were monitored by a PC-based tracking software (IntelliCage Plus, TSE Systems). Initially, the mice were allowed to adapt to the IntelliCage for at least 7 days with water available ad libitum in all corners. Then for 3 days the animals were habituated to the sucrose taste: in each corner one of the bottles was filled with 1% sucrose solution and the other one with water. Both doors in the corner were open allowing free choice between the bottles. Next, a nosepoke adaptation period was carried out, where all doors were closed and the mice had to perform a nosepoke to open them. The opened door closes automatically after 5 s of drinking. In all tasks involving sucrose-filled bottles, the positions of the bottles were exchanged every 24 h. The Nosepoke SPT protocol was used (see Alboni et al.) for measurement of sucrose preference with gradually increasing effort (number of nosepokes) to reach the sucrose bottles for a short period of time (12 h). In this paradigm each door opens in response to a nosepoke and closes after 5 s licking. The number of nosepokes needed to open a door to a side with a sucrose containing bottle gradually increases (1, 2, 3, 4, 5, 6, 8, 10, 12, 16, 20, 24) after every 8 sucrose licking sessions. For each bottle the number of licks was recorded and the averaged sucrose preference was calculated as percentage of the total number of licks.

[3] = tested on: SOM-dependent feedback loop, CA1 PCs; experiment: Feedback loop-activating protocol (FLAP) in CA1 PCs; assay type: cell-based, mice
[4] = tested on: SOM-dependent feedback loop, CA1 PCs; experiment: as above; assay type: cell-based, mice; remark: listed apart in the source
Experimental: A 300 ms depolarizing current between +100 and +[…] was injected via the patch pipette into a PC to elicit a train of 5-10 APs. After an interval of 600 ms, one EPSP (5-10 mV amplitude) was elicited by Schaffer collateral stimulation. This pattern was continuously repeated at a frequency of 0.2 Hz. Substances were added by bath application after a stable 10 min baseline recording for an additional 20 min. For data analysis the maximum EPSP amplitudes from minutes 0-10 were averaged and compared to averaged maximum EPSP amplitudes from minutes 20-30.
The slope of the EPSP rise at 20% to 40% of its maximal amplitude, at which point an approximately linear increase in its voltage could be assumed, was fitted with Fitmaster software (HEKA, Germany). We analyzed 20 EPSPs before and 20 EPSPs 25-30 minutes after NAB-14 wash-in in the FLAP protocol for each experiment. The coefficient of variation (CV) is the standard deviation of the EPSP slopes divided by the mean. The inverse square of the CV of the postwash-in slopes was divided by the inverse square of the prewash-in slopes and plotted against the corresponding normalized slopes. Pre- and postwash-in measurements from a single experiment are connected by a line. In a standard quantal model for synaptic transmission, synaptic responses are affected either by presynaptic changes in the number of release sites and/or the probability of release or by modifications of the postsynaptic response to a single […]. A change in the ratio of CV-2 reflects a presynaptic action, whereas horizontal lines in the CV-2 plot indicate a change in postsynaptic responsiveness.

[5] = tested on: CA3-CA1 synapse, CA1 pyramidal neurons in hippocampal brain slices; experiment: LTP/LTD protocols and wash-in in brain slices of unstressed mice, substance in bathing solution; assay type: cell-based; conditions: hydrochloride; for LTP inducibility, associative LTP protocol (aLTP): unstressed mice, bath with picrotoxin, R,S-ketamine 10 μM, S-ketamine 5 μM

N[C@H](CCCP(=O)(O)O)C(=O)O [DAPV, D-(−)-2-Amino-5-phosphonopentanoic acid]
currents recorded at −80 mV (AMPAR and NMDAR currents): did not significantly change; also recorded: did not have further effects | currents recorded at +40 mV (AMPAR and NMDAR currents): full blockade; also recorded: fully blocked

N#Cc1cc2c(cc1[N+](=O)[O-])=NC(=O)C(=O)N=2 [CNQX, 6-Cyano-7-nitroquinoxaline-2,3-dione]
currents recorded at −80 mV (AMPAR and NMDAR currents): fully blocked | currents recorded at +40 mV (AMPAR and NMDAR currents): only partially be reduced; also recorded: only partially influenced

COc1ccc2nc(/C=C/c3cccc([N+](=O)[O-])c3)n(-c3ccc(C(=O)O)cc3)c(=O)c2c1 [QNZ46, 4-[6-Methoxy-2-[(1E)-2-(3-nitrophenyl)ethenyl]-4-oxo-3(4H)-quinazolinyl]-Benzoic acid]
immobility time ([1]; CDM mice, 7 mg/kg i.p. two hours before behavioral readout, n=10): significantly reduced

N[C@@]1(c2ccccc2Cl)CCC[C@@H](O)C1=O [HNK, 2R,6R Hydroxynorketamine]
CDM-induced blockade of LTP inducibility (aLTP) [2]: neither HNK nor mGluR2 antagonist 1 treatment did change this blockade | LTD inducibility (EPSP amplitude after aLTD protocol) [2]: abolishes this reduction of amplitude; also recorded: completely blocked the LTD inducibility | EPSP amplitude after aLTD ([2]; treatment prior to swim sessions (before CDM), male and female mice): complete revers of EPSP amplitudes

O=C1Nc2ccc(Cl)cc2C(c2ccccc2Cl)=NC1O (stereo not drawn) [lorazepam]
LTP reestablishment by NAB-14, comedication [2]: abolishing LTP reestablishment | LTP reestablishment by NAB-14, comedication ([2]; listed as Lorazepam): blocked NAB-14 effects completely | LTP inducibility, lorazepam alone ([2]; control and CDM condition): did block LTP inducibility | sucrose preference of CDM mice treated with NAB-14, comedication (CDM mice): did not improve | immobility time of CDM mice treated with NAB-14, comedication [1]: did not improve | immobility time of CDM mice treated with NAB-14, comedication ([1]; listed as Lorazepam): blocked NAB-14 effects

NC(=O)c1cc(-c2ccc(F)cc2)c2ccc(CN3C(=O)CCC3=O)cc2n1 [mGluR2 antagonist 1, 7-[(2,5-dioxopyrrolidin-1-yl)methyl]-4-(4-fluorophenyl)quinoline-2-carboxamide]
CDM-induced blockade of LTP inducibility (aLTP) [2]: neither HNK nor mGluR2 antagonist 1 treatment did change this blockade | LTD inducibility (EPSP amplitude after aLTD protocol) [2]: abolishes this reduction of amplitude; also recorded: completely blocked the LTD inducibility

CN1C(=O)CN=C(c2ccccc2)c2cc(Cl)ccc21 [diazepam]
EPSP amplitude in the absence of AP bursts [3]: neither NAB14 nor diazepam wash-in significantly altered the EPSP amplitude; also recorded: no significant pre/post changes | NAB-14-induced increase in EPSP amplitude in FLAP, in presence of diazepam [4]: abolished; also recorded: prevented

COc1ccc(OCC2c3cc(OC)c(OC)cc3CCN2C(=O)c2cccc(Cl)c2)cc1 (stereo not drawn) [CIQ]
LTP reestablishment by NAB-14, comedication [2]: abolishing LTP reestablishment; also recorded: blocked NAB-14 effects completely | sucrose preference of CDM mice treated with NAB-14, comedication (CDM mice): did not improve | immobility time of CDM mice treated with NAB-14, comedication [1]: did not improve; also recorded: blocked NAB-14 effects

CN[C@]1(c2ccccc2Cl)CCCCC1=O.Cl [S-ketamine, S-Ketamine hydrochloride]
EPSP amplitude after associative LTD protocol (aLTD, NMDAR-independent) [5]: unaffected; also recorded: neither R,S-ketamine (10 μM) nor S-ketamine (5 μM) had an effect | LTD inducibility, non-associative 1 Hz LTD protocol (NMDAR-dependent) [5]: fully blocked; also recorded: abolished | LTP inducibility, non-associative 100 Hz LTP protocol [5]: significant blockade of inducibility of LTP | aLTP induction [5]: neither K nor SK blocked aLTP induction; also recorded: not affected | LTP inducibility, associative LTP protocol (aLTP) [5]: significant blockade of inducibility of LTP | LTP inducibility, associative LTP protocol (aLTP) ([5]; listed as SK): complete inhibition of LTP
